Laboratory results from patent US20220119354A1, “DIAMINO-SUBSTITUTED PYRIDINES AND PYRIMIDINES AS HERBICIDES” (FMC Corporation, priority 2019, published 2022).

Columns and labels:
Assay type in all cases: in vivo
[1] = test system: galium (catchweed bedstraw, Galium aparine); assay: Test A postemergence, galium; conditions: 0 to 100 scale
Procedure, shortened: (§1)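 Compound, in a non-phytotoxic solvent blend containing surfactant, is sprayed onto soil immediately after sowing or onto young plants (one- to two-leaf, 2–10 cm). After roughly 10 d under greenhouse conditions, injury is judged by eye relative to untreated plants on a 0–100 control scale.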

kochia (Kochia scoparia) [2] = assay: Test A postemergence, kochia; conditions: 0 to 100 scale
Procedure, shortened: as §1

[3] = test system: ryegrass, Italian (Lolium multiflorum); assay: Test A postemergence, Italian ryegrass; conditions: 0 to 100 scale
Procedure, shortened: as §1

[4] = test system: foxtail, giant (Setaria faberii); assay: Test A preemergence, giant foxtail; conditions: 0 to 100 scale
Procedure, shortened: as §1

[5] = test system: pigweed (Amaranthus retroflexus); assay: Test A postemergence, pigweed; conditions: 0 to 100 scale
Procedure, shortened: as §1

[6] = test system: barnyardgrass (Echinochloa crus-galli); assay: Test A postemergence, barnyardgrass; conditions: 0 to 100 scale
Procedure, shortened: as §1

[7] = test system: sedge, umbrella (small-flower umbrella sedge, Cyperus difformis); assay: Test B flooded paddy test, umbrella sedge; conditions: Flood, 250 g ai/ha, applied to paddy water, 2-leaf stage, visual evaluation after 13 to 15 d
Procedure, shortened: (§2)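 Pots flooded to 3 cm above the soil when treated, with test compound added straight to the water and the flood maintained. Treated plants were at the 2-leaf stage and stayed 13–15 d in greenhouse. Response versus untreated controls scored visually from 0 (no effect) to 100 (complete control).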

[8] = test system: wheat (Triticum aestivum); assay: Test A postemergence, wheat; conditions: 0 to 100 scale
Procedure, shortened: as §1

rice (Oryza sativa) = assay: Test B flooded paddy test, rice; conditions: Flood, 250 g ai/ha, applied to paddy water, 2-leaf stage, visual evaluation after 13 to 15 d
Procedure, shortened: as §2

[9] = test system: foxtail, giant (Setaria faberii); assay: Test A postemergence, giant foxtail; conditions: 0 to 100 scale
Procedure, shortened: as §1

corn (Zea mays) = assay: Test A postemergence, corn; conditions: 0 to 100 scale
Procedure, shortened: as §1

[10] = test system: ryegrass, Italian (Lolium multiflorum); assay: Test A preemergence, Italian ryegrass; conditions: 0 to 100 scale
Procedure, shortened: as §1

[11] = test system: barnyardgrass (Echinochloa crus-galli); assay: Test A preemergence, barnyardgrass; conditions: 0 to 100 scale
Procedure, shortened: as §1

[12] = test system: blackgrass (Alopecurus myosuroides); assay: Test A postemergence, blackgrass; conditions: 0 to 100 scale
Procedure, shortened: as §1

[13] = test system: pigweed (Amaranthus retroflexus); assay: Test A preemergence, pigweed; conditions: 0 to 100 scale
Procedure, shortened: as §1

[14] = test system: ragweed (common ragweed, Ambrosia elatior); assay: Test A preemergence, ragweed; conditions: 0 to 100 scale
Procedure, shortened: as §1

[15] = test system: ducksalad (Heteranthera limosa); assay: Test B flooded paddy test, ducksalad; conditions: Flood, 250 g ai/ha, applied to paddy water, 2-leaf stage, visual evaluation after 13 to 15 d
Procedure, shortened: as §2

[16] = test system: ragweed (common ragweed, Ambrosia elatior); assay: Test A postemergence, ragweed; conditions: 0 to 100 scale
Procedure, shortened: as §1

kochia (Kochia scoparia) [17] = assay: Test A preemergence, kochia; conditions: 0 to 100 scale
Procedure, shortened: as §1

[18] = test system: barnyardgrass (Echinochloa crus-galli); assay: Test B flooded paddy test, barnyardgrass; conditions: Flood, 250 g ai/ha, applied to paddy water, 2-leaf stage, visual evaluation after 13 to 15 d
Procedure, shortened: as §2

Cc1cc(C)cc(OC[C@@H](C)Nc2ncc(C(F)(F)F)c(N)n2)c1 [Compound 25, N2-[(1R)-2-(3,5-dimethylphenoxy)-1-methylethyl]-5-(trifluoromethyl)-2,4-pyrimidinediamine]
pest or weed control at 125 g/ha ([1]; Galium, post-emergence, 240 h, 125 g ai/ha, read-out: Plant response rating, Galium): 80% | pest or weed control at 500 g/ha ([1]; Galium, post-emergence, 240 h, 500 g ai/ha, read-out: Plant response rating, Galium): 90% | pest or weed control at 125 g/ha (kochia (Kochia scoparia) [2]; Bassia scoparia, post-emergence, 240 h, 125 g ai/ha, read-out: Plant response rating, Kochia): 60% | pest or weed control at 500 g/ha (kochia (Kochia scoparia) [2]; Bassia scoparia, post-emergence, 240 h, 500 g ai/ha, read-out: Plant response rating, Kochia): 80% | pest or weed control at 125 g/ha ([3]; Lolium multiflorum, post-emergence, 240 h, 125 g ai/ha, read-out: Plant response rating, Ryegrass, Italian): 0% | pest or weed control at 500 g/ha ([3]; Lolium multiflorum, post-emergence, 240 h, 500 g ai/ha, read-out: Plant response rating, Ryegrass, Italian): 20% | Plant response rating, Foxtail, Giant ([4]; 125 g ai/ha): 50 | Plant response rating, Foxtail, Giant ([4]; 500 g ai/ha): 100 | pest or weed control at 125 g/ha ([5]; Amaranthus retroflexus, post-emergence, 240 h, 125 g ai/ha, read-out: Plant response rating, Pigweed): 70% | pest or weed control at 500 g/ha ([5]; Amaranthus retroflexus, post-emergence, 240 h, 500 g ai/ha, read-out: Plant response rating, Pigweed): 90% | pest or weed control at 125 g/ha ([6]; Echinochloa crus-galli, post-emergence, 240 h, 125 g ai/ha, read-out: Plant response rating, Barnyardgrass): 50% | pest or weed control at 500 g/ha ([6]; Echinochloa crus-galli, post-emergence, 240 h, 500 g ai/ha, read-out: Plant response rating, Barnyardgrass): 90% | pest or weed control at 250 g/ha ([7]; Cyperus difformis, 360 h, read-out: Plant response rating, Sedge, Umbrella (0 to 100 scale, 0 is no effect, 100 is complete control)): 100% | plant injury at 125 g/ha ([8]; Triticum aestivum, post-emergence, 240 h, 125 g ai/ha, read-out: Plant response rating, Wheat): 0% | plant injury at 500 g/ha ([8]; Triticum aestivum, post-emergence, 240 h, 500 g ai/ha, read-out: Plant response rating, Wheat): 30% | plant injury at 250 g/ha (rice (Oryza sativa); Oryza sativa, 360 h, read-out: Plant response rating, Rice (0 to 100 scale, 0 is no effect, 100 is complete control)): 0% | pest or weed control at 125 g/ha ([9]; Setaria faberi, post-emergence, 240 h, 125 g ai/ha, read-out: Plant response rating, Foxtail, Giant): 10% | pest or weed control at 500 g/ha ([9]; Setaria faberi, post-emergence, 240 h, 500 g ai/ha, read-out: Plant response rating, Foxtail, Giant): 80% | Corn plant response rating (crop injury, 0 = no effect, 100 = complete kill) at 125 g/ha (corn (Zea mays); Zea mays, post-emergence, 240 h, 125 g ai/ha): 20% | Corn plant response rating (crop injury, 0 = no effect, 100 = complete kill) at 500 g/ha (corn (Zea mays); Zea mays, post-emergence, 240 h, 500 g ai/ha): 60% | Plant response rating, Ryegrass, Italian ([10]; 125 g ai/ha): 20 | Plant response rating, Ryegrass, Italian ([10]; 500 g ai/ha): 70 | Plant response rating, Barnyardgrass ([11]; 125 g ai/ha): 90 | Plant response rating, Barnyardgrass ([11]; 500 g ai/ha): 100 | pest or weed control at 125 g/ha ([12]; Alopecurus myosuroides, post-emergence, 240 h, 125 g ai/ha, read-out: Plant response rating, Blackgrass): 0% | pest or weed control at 500 g/ha ([12]; Alopecurus myosuroides, post-emergence, 240 h, 500 g ai/ha, read-out: Plant response rating, Blackgrass): 70% | Plant response rating, Pigweed ([13]; 125 g ai/ha): 60 | Plant response rating, Pigweed ([13]; 500 g ai/ha): 100 | Plant response rating, Ragweed ([14]; 125 g ai/ha): 80 | Plant response rating, Ragweed ([14]; 500 g ai/ha): 100 | pest or weed control at 250 g/ha ([15]; Heteranthera limosa, 360 h, read-out: Plant response rating, Ducksalad (0 to 100 scale, 0 is no effect, 100 is complete control)): 0% | pest or weed control at 125 g/ha ([16]; Ambrosia artemisiifolia, post-emergence, 240 h, 125 g ai/ha, read-out: Plant response rating, Ragweed): 60% | pest or weed control at 500 g/ha ([16]; Ambrosia artemisiifolia, post-emergence, 240 h, 500 g ai/ha, read-out: Plant response rating, Ragweed): 90% | Plant response rating, Kochia (kochia (Kochia scoparia) [17]; 125 g ai/ha): 20 | Plant response rating, Kochia (kochia (Kochia scoparia) [17]; 500 g ai/ha): 90 | pest or weed control at 250 g/ha ([18]; Echinochloa crus-galli, 360 h, read-out: Plant response rating, Barnyardgrass (0 to 100 scale, 0 is no effect, 100 is complete control)): 0%

C[C@H](COc1ccccc1)Nc1ncc(C(F)(F)F)c(N)n1 [Compound 26]
Plant response rating, Galium ([1]; 1000 g ai/ha): 60 | Plant response rating, Kochia (kochia (Kochia scoparia) [2]; 1000 g ai/ha): 30 | Plant response rating, Ryegrass, Italian ([3]; 1000 g ai/ha): 10 | Plant response rating, Foxtail, Giant ([4]; 1000 g ai/ha): 50 | Plant response rating, Pigweed ([5]; 1000 g ai/ha): 50 | Plant response rating, Barnyardgrass ([6]; 1000 g ai/ha, 0 no effect, 100 complete control): 0 | Plant response rating, Sedge, Umbrella (0 to 100 scale, 0 is no effect, 100 is complete control) [7]: 0 | Plant response rating, Wheat ([8]; 1000 g ai/ha): 0 | Plant response rating, Rice (0 to 100 scale, 0 is no effect, 100 is complete control) (rice (Oryza sativa)): 0 | Plant response rating, Foxtail, Giant ([9]; 1000 g ai/ha): 0 | Plant response rating, Corn (corn (Zea mays); 1000 g ai/ha): 10 | Plant response rating, Ryegrass, Italian ([10]; 1000 g ai/ha): 20 | Plant response rating, Barnyardgrass ([11]; 1000 g ai/ha): 10 | Plant response rating, Blackgrass ([12]; 1000 g ai/ha): 0 | Plant response rating, Pigweed ([13]; 1000 g ai/ha): 80 | Plant response rating, Ragweed ([14]; 1000 g ai/ha): 100 | Plant response rating, Ducksalad (0 to 100 scale, 0 is no effect, 100 is complete control) [15]: 0 | Plant response rating, Ragweed ([16]; 1000 g ai/ha): 30 | Plant response rating, Kochia (kochia (Kochia scoparia) [17]; 1000 g ai/ha): 0 | Plant response rating, Barnyardgrass (0 to 100 scale, 0 is no effect, 100 is complete control) [18]: 0

CC[C@H](COc1cc(C)cc(C)c1)Nc1ncc(C(F)(F)F)c(N)n1 [Compound 27]
Plant response rating, Galium ([1]; 125 g ai/ha): 90 | Plant response rating, Galium ([1]; 500 g ai/ha): 90 | Plant response rating, Kochia (kochia (Kochia scoparia) [2]; 125 g ai/ha): 0 | Plant response rating, Kochia (kochia (Kochia scoparia) [2]; 500 g ai/ha): 70 | Plant response rating, Ryegrass, Italian ([3]; 125 g ai/ha): 0 | Plant response rating, Ryegrass, Italian ([3]; 500 g ai/ha): 0 | Plant response rating, Foxtail, Giant ([4]; 125 g ai/ha): 20 | Plant response rating, Foxtail, Giant ([4]; 500 g ai/ha): 90 | Plant response rating, Pigweed ([5]; 125 g ai/ha): 60 | Plant response rating, Pigweed ([5]; 500 g ai/ha): 90 | Plant response rating, Barnyardgrass ([6]; 125 g ai/ha): 0 | Plant response rating, Barnyardgrass ([6]; 500 g ai/ha): 20 | Plant response rating, Sedge, Umbrella (0 to 100 scale, 0 is no effect, 100 is complete control) [7]: 50 | Plant response rating, Wheat ([8]; 125 g ai/ha): 0 | Plant response rating, Wheat ([8]; 500 g ai/ha): 20 | Plant response rating, Rice (0 to 100 scale, 0 is no effect, 100 is complete control) (rice (Oryza sativa)): 0 | Plant response rating, Foxtail, Giant ([9]; 125 g ai/ha): 0 | Plant response rating, Foxtail, Giant ([9]; 500 g ai/ha): 20 | Plant response rating, Corn (corn (Zea mays); 125 g ai/ha): 0 | Plant response rating, Corn (corn (Zea mays); 500 g ai/ha): 20 | Plant response rating, Ryegrass, Italian ([10]; 125 g ai/ha): 30 | Plant response rating, Ryegrass, Italian ([10]; 500 g ai/ha): 80 | Plant response rating, Barnyardgrass ([11]; 125 g ai/ha): 10 | Plant response rating, Barnyardgrass ([11]; 500 g ai/ha): 90 | Plant response rating, Blackgrass ([12]; 125 g ai/ha): 10 | Plant response rating, Blackgrass ([12]; 500 g ai/ha): 50 | Plant response rating, Pigweed ([13]; 125 g ai/ha): 10 | Plant response rating, Pigweed ([13]; 500 g ai/ha): 80 | Plant response rating, Ragweed ([14]; 125 g ai/ha): 70 | Plant response rating, Ragweed ([14]; 500 g ai/ha): 90 | Plant response rating, Ducksalad (0 to 100 scale, 0 is no effect, 100 is complete control) [15]: 0 | Plant response rating, Ragweed ([16]; 125 g ai/ha): 20 | Plant response rating, Ragweed ([16]; 500 g ai/ha): 90 | Plant response rating, Kochia (kochia (Kochia scoparia) [17]; 125 g ai/ha): 0 | Plant response rating, Kochia (kochia (Kochia scoparia) [17]; 500 g ai/ha): 40 | Plant response rating, Barnyardgrass (0 to 100 scale, 0 is no effect, 100 is complete control) [18]: 0
